According to patent US9643953B2, “Substituted benzylpyrazoles” (Bayer Intellectual Property GmbH, priority 2011, dated 2017):
Where two headings read alike, the source gives them in different places.

Columns and labels:
[1] = target: T1, catalytic domain of human Bub1 (amino acids 704-1085) (Homo sapiens, UniProt O43683); assay: Bub1 kinase assay (TR-FRET); type: biochemical; conditions: ATP 10 μM, peptide substrate 1 μM, 60 min at 22° C.
T1 construct: catalytic domain of human Bub1 (amino acids 704-1085); His6 (N); made in house; host or cells: Hi5 insect cells
T1 sequence (O43683 704-1085): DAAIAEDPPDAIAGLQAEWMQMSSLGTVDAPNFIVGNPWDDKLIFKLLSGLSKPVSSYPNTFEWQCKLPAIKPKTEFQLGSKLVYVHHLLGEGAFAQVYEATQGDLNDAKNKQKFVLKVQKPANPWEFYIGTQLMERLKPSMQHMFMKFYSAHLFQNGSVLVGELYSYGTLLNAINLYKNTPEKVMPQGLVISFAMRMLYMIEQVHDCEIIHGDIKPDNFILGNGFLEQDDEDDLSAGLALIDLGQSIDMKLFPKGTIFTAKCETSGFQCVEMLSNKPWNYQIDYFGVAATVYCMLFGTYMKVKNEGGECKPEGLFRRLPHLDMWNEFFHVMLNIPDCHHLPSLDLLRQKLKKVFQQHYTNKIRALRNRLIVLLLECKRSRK
Protocol: To this end, 100-fold concentrated compound solutions (in DMSO) were previously prepared by serial dilution (1:3.4) of 2 mM stocks in a clear low volume 384-well source microtiter plate (Greiner Bio-One, Frickenhausen, Germany), from which 50 nl of compounds were transferred into a black low volume test microtiter plate from the same supplier. […] The resulting mixture (5 μl final volume) was incubated at 22° C. during 60 min., and the reaction was stopped by the addition of 5 μl of an aqueous EDTA-solution (50 mM EDTA, in 100 mM HEPES pH 7.5 and 0.2% (w/v) bovine serum albumin) which also contained the TR-FRET detection reagents (0.2 μM streptavidin-XL665 [Cisbio Bioassays, Codolet, France] and 1 nM anti-phosho-Serine antibody [Merck Millipore, cat. #35-001] and 0.4 nM LANCE EU-W1024 labeled anti-mouse IgG antibody [Perkin-Elmer, product no. AD0077, alternatively a Terbium-cryptate-labeled anti-mouse IgG antibody from Cisbio Bioassays can be used]). The stopped reaction mixture was further incubated 1 h at 22° C. in order to allow the formation of complexes between peptides and detection reagents. Subsequently, the amount of product was evaluated by measurement of the resonance energy transfer from the Eu-chelate-antibody complex recognizing the Phosphoserine residue to the streptavidin-XL665 bound to the biotin moiety of the peptide. […] IC50 values were calculated by fitting the normalized inhibition data to a 4-parameter logistic equation (Minimum, Maximum, IC50, Hill; Y=Max+(Min−Max)/(1+(X/IC50)Hill)).

HeLa cell line = assay: Proliferation assay (HeLa cell line); conditions: Homo sapiens, HeLa, 96 h;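 also: crystal violet staining of cell number, absorbance read at 595 nm, compounds tested at 0.001–10 µM, zero-point plate taken as 0% and untreated cells as 100%, four-parameter fit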
Protocol: Cultivated tumor cells (cells were ordered from ATCC, except HeLa-MaTu and HeLa-MaTu-ADR, which were ordered from EPO-GmbH, Berlin) were plated at a density of 1000 to 5000 cells/well, depending on the growth rate of the respective cell line, in a 96-well multititer plate in 200 μL of their respective growth medium supplemented 10% fetal calf serum. After 24 hours, the cells of one plate (zero-point plate) were stained with crystal violet (see below), while the medium of the other plates was replaced by fresh culture medium (200 μl), to which the test substances were added in various concentrations (0 μM, as well as in the range of 0.001-10 μM; the final concentration of the solvent dimethyl sulfoxide was 0.5%). The cells were incubated for 4 days in the presence of test substances. Cell proliferation was determined by staining the cells with crystal violet: the cells were fixed by adding 20 μl/measuring point of an 11% glutaric aldehyde solution for 15 minutes at room temperature. After three washing cycles of the fixed cells with water, the plates were dried at room temperature. The cells were stained by adding 100 μl/measuring point of a 0.1% crystal violet solution (pH 3.0). After three washing cycles of the stained cells with water, the plates were dried at room temperature. The dye was dissolved by adding 100 μl/measuring point of a 10% acetic acid solution. Absorption was determined by photometry at a wavelength of 595 nm. The change of cell number, in percent, was calculated by normalization of the measured values to the absorption values of the zero-point plate (=0%) and the absorption of the untreated (0 μm) cells (=100%). The IC50 values were determined by means of a 4 parameter fit.

[2] = TR-FRET, read-out: Biological Assay 1: Bub1 kinase assay median IC50
[3] = read-out: Biological Assay 2: Proliferation assay (HeLa cell line) median IC50
[4] = Biological Assay 1: Bub1 kinase assay median IC50, TR-FRET
[5] = read-out: Biological Assay 2: Proliferation assay (HeLa cell line) median IC50, HeLa cells, 4 days incubation, crystal violet staining

IC50 [1, 2] [µM] | IC50 (HeLa cell line; [3]) [µM] | IC50 [1, 4] [µM] | SMILES | IC50 (HeLa cell line; [5]) [µM]
0.00786 | 2.74 | – | COc1cnc(-c2nn(Cc3c(Cl)cccc3Cl)c(OC)c2C)nc1Nc1ccncc1 [Example 2-1-11, 2-[1-(2,6-dichlorobenzyl)-5-methoxy-4-methyl-1H-pyrazol-3-yl]-5-methoxy-N-(pyridin-4-yl)pyrimidin-4-amine] | –
1.42 | > 10 | – | COc1cnc(-c2cc(OC)n(Cc3ccccc3F)n2)nc1Nc1ccncc1C#N [Example 2-1-7, 4-({2-[1-(2-fluorobenzyl)-5-methoxy-1H-pyrazol-3-yl]-5-methoxypyrimidin-4-yl}amino)pyridine-3-carbonitrile] | –
0.0738 | > 10 | – | COc1ccc(Cn2nc(-c3ncc(OC)c(Nc4ccncc4)n3)cc2C2CC2)cc1 [Example 2-1-8, 2-[5-cyclopropyl-1-(4-methoxybenzyl)-1H-pyrazol-3-yl]-5-methoxy-N-(pyridin-4-yl)pyrimidin-4-amine] | –
0.516 | > 10 | – | COc1cnc(-c2cc(C3CC3)n(Cc3ccccc3)n2)nc1Nc1ccncc1 [Example 2-1-5, 2-(1-benzyl-5-cyclopropyl-1H-pyrazol-3-yl)-5-methoxy-N-(pyridin-4-yl)pyrimidin-4-amine] | –
0.0415 | > 10 | – | COc1cnc(-c2cc(OC)n(Cc3ccccc3F)n2)nc1Nc1ccncc1C(N)=O [Example 2-4-1, 4-({2-[1-(2-fluorobenzyl)-5-methoxy-1H-pyrazol-3-yl]-5-methoxypyrimidin-4-yl}amino)pyridine-3-carboxamide] | –
0.381 | > 10 | – | COc1cnc(-c2cc(OC)n(Cc3ccccc3F)n2)nc1Nc1ccncc1 [Example 2-1-3, 2-[1-(2-fluorobenzyl)-5-methoxy-1H-pyrazol-3-yl]-5-methoxy-N-(pyridin-4-yl)pyrimidin-4-amine] | –
0.0151 | – | – | COc1ccc(Cn2nc(-c3ncc(OC)c(Nc4ccncc4)n3)c(C)c2C2CC2)cc1 [Example 2-6-1, 2-[5-cyclopropyl-1-(4-methoxybenzyl)-4-methyl-1H-pyrazol-3-yl]-5-methoxy-N-(pyridin-4-yl)pyrimidin-4-amine] | –
– | – | 0.0126 | CCOc1cc(F)c(Cn2nc(-c3ncc(OC)c(Nc4ccncc4)n3)c(C)c2N(C)C)c(F)c1 [Example 2-6-2, 2-[5-(dimethylamino)-1-(4-ethoxy-2,6-difluorobenzyl)-4-methyl-1H-pyrazol-3-yl]-5-methoxy-N-(pyridin-4-yl)pyrimidin-4-amine] | –
– | – | 0.0486 | CCOc1cc(F)c(Cn2nc(-c3ncc(OC)c(Nc4ccncc4C#N)n3)c(C)c2C2CC2)c(F)c1 [Example 2-6-4, 4-({2-[5-cyclopropyl-1-(4-ethoxy-2,6-difluorobenzyl)-4-methyl-1H-pyrazol-3-yl]-5-methoxypyrimidin-4-yl}amino)nicotinonitrile] | –

Further lines, the compound ahead of its results:

SMILES | IC50 [1, 2] [µM] | IC50 (HeLa cell line; [3]) [µM] | IC50 [1, 4] [µM] | IC50 (HeLa cell line; [5]) [µM]
CCOc1cc(F)c(Cn2nc(-c3ncc(OCCCSC)c(Nc4ccncc4)n3)c(C)c2C2CC2)c(F)c1 [Example 2-3-8, 2-[5-cyclopropyl-1-(4-ethoxy-2,6-difluorobenzyl)-4-methyl-1H-pyrazol-3-yl]-5-[3-(methylsulfanyl)propoxy]-N-(pyridin-4-yl)pyrimidin-4-amine] | – | 2.96 | 0.0137 | –
CCOc1cc(F)c(Cn2nc(-c3ncc(OCC4(CO)COC4)c(Nc4ccncc4)n3)c(C)c2C2CC2)c(F)c1 [Example 2-3-2, {3-[({2-[5-cyclopropyl-1-(4-ethoxy-2,6-difluorobenzyl)-4-methyl-1H-pyrazol-3-yl]-4-(pyridin-4-ylamino)pyrimidin-5-yl}oxy)methyl]oxetan-3-yl}methanol] | – | 6 | 0.00523 | –
CCOc1cc(F)c(Cn2nc(-c3ncc(OC)c(Nc4ccncc4C(N)=O)n3)c(C)c2C2CC2)c(F)c1 [Example 2-4-2, 4-({2-[5-cyclopropyl-1-(4-ethoxy-2,6-difluorobenzyl)-4-methyl-1H-pyrazol-3-yl]-5-methoxypyrimidin-4-yl}amino)nicotinamide] | – | 3.23 | 0.0105 | –
CCOc1cc(F)c(Cn2nc(-c3ncc(C#N)c(Nc4ccncc4)n3)c(C)c2C2CC2)c(F)c1 [Example 2-6-3, 2-[5-cyclopropyl-1-(4-ethoxy-2,6-difluorobenzyl)-4-methyl-1H-pyrazol-3-yl]-4-(pyridin-4-ylamino)pyrimidine-5-carbonitrile] | – | 9.35 | – | –
CCOc1cc(F)c(Cn2nc(-c3ncc(O)c(Nc4ccncc4)n3)c(C)c2C2CC2)c(Sc2ccccc2)c1 [Example 2-2-2, 2-{5-cyclopropyl-1-[4-ethoxy-2-fluoro-6-(phenylsulfanyl)benzyl]-4-methyl-1H-pyrazol-3-yl}-4-(pyridin-4-ylamino)pyrimidin-5-ol] | 0.0539 | – | – | 4.97
CCOc1cc(F)c(Cn2nc(-c3ncc(OCC[S+](C)[O-])c(Nc4ccncc4)n3)c(C)c2C2CC2)c(F)c1 (racemic) [Example 2-8-1, 2-[5-cyclopropyl-1-(4-ethoxy-2,6-difluorobenzyl)-4-methyl-1H-pyrazol-3-yl]-5-[2-(methylsulfinyl)ethoxy]-N-(pyridin-4-yl)pyrimidin-4-amine] | 0.00419 | – | – | 3.93
CCOc1cc(F)c(Cn2nc(-c3ncc(OCCS(C)(=O)=O)c(Nc4ccncc4)n3)c(C)c2C2CC2)c(F)c1 [Example 2-9-1, 2-[5-cyclopropyl-1-(4-ethoxy-2,6-difluorobenzyl)-4-methyl-1H-pyrazol-3-yl]-5-[2-(methylsulfonyl)ethoxy]-N-(pyridin-4-yl)pyrimidin-4-amine] | – | 5.17 | 0.00787 | –
CCOc1cc(F)c(Cn2nc(-c3ncc(OCCO)c(Nc4ccncc4)n3)c(C)c2C2CC2)c(F)c1 [Example 2-3-3, 2-({2-[5-cyclopropyl-1-(4-ethoxy-2,6-difluorobenzyl)-4-methyl-1H-pyrazol-3-yl]-4-(pyridin-4-ylamino)pyrimidin-5-yl}oxy)ethanol] | – | 3.59 | 0.00786 | –
CCOc1cc(F)c(Cn2nc(-c3ncc(OC)c(Nc4ccncc4C(=O)O)n3)c(C)c2C2CC2)c(F)c1 [Example 2-11-1, 4-({2-[5-cyclopropyl-1-(4-ethoxy-2,6-difluorobenzyl)-4-methyl-1H-pyrazol-3-yl]-5-methoxypyrimidin-4-yl}amino)nicotinic acid] | – | – | 0.0268 | –
COc1cnc(-c2nn(Cc3c(F)cc(OC(F)F)cc3F)c(C3CC3)c2C)nc1Nc1ccncc1 [Example 2-10-1, 2-{5-cyclopropyl-1-[4-(difluoromethoxy)-2,6-difluorobenzyl]-4-methyl-1H-pyrazol-3-yl}-5-methoxy-N-(pyridin-4-yl)pyrimidin-4-amine] | 0.00679 | – | – | –
CCOc1cc(F)c(Cn2nc(-c3ncc(OCC[S+](C)[O-])c(Nc4ccncc4)n3)c(C)c2C2CC2)c(F)c1 (single isomer, unassigned; enantiomer 2) [Example 2-8-3, 2-[5-cyclopropyl-1-(4-ethoxy-2,6-difluorobenzyl)-4-methyl-1H-pyrazol-3-yl]-5-[2-(methylsulfinyl)ethoxy]-N-(pyridin-4-yl)pyrimidin-4-amine enantiomer 2] | 0.00617 | – | – | –
CCOc1cc(F)c(Cn2nc(-c3ncc(O)c(Nc4ccncc4)n3)c(C)c2C2CC2)c(F)c1 [Example 2-2-1, 2-[5-cyclopropyl-1-(4-ethoxy-2,6-difluorobenzyl)-4-methyl-1H-pyrazol-3-yl]-4-(pyridin-4-ylamino)pyrimidin-5-ol] | – | – | 0.0062 | –
COc1cnc(-c2nn(Cc3c(F)cc(C4CC4)cc3F)c(C3CC3)c2C)nc1Nc1ccncc1 [Example 2-7-1, 2-[5-cyclopropyl-1-(4-cyclopropyl-2,6-difluorobenzyl)-4-methyl-1H-pyrazol-3-yl]-5-methoxy-N-(pyridin-4-yl)pyrimidin-4-amine] | 0.00862 | – | – | –
CCOC(=O)c1cnccc1Nc1nc(-c2nn(Cc3c(F)cc(OCC)cc3F)c(C3CC3)c2C)ncc1OC [Example 2-6-5, ethyl 4-({2-[5-cyclopropyl-1-(4-ethoxy-2,6-difluorobenzyl)-4-methyl-1H-pyrazol-3-yl]-5-methoxypyrimidin-4-yl}amino)nicotinate] | – | – | 0.0274 | –
CCOc1cc(F)c(Cn2nc(-c3ncc(OCC[S+](C)[O-])c(Nc4ccncc4)n3)c(C)c2C2CC2)c(F)c1 (single isomer, unassigned; enantiomer 1) [Example 2-8-2, 2-[5-cyclopropyl-1-(4-ethoxy-2,6-difluorobenzyl)-4-methyl-1H-pyrazol-3-yl]-5-[2-(methylsulfinyl)ethoxy]-N-(pyridin-4-yl)pyrimidin-4-amine enantiomer 1] | 0.00396 | – | – | –
